Tests used:
[1] = molecular target: BTK in mouse bone marrow (Mus musculus (Mouse), UniProt P35991); assay: Mouse Bone Marrow Assay (MSD ELISA of BTK degradation in bone marrow); assay type: in vivo; conditions: female C57BL/6J mice, single dose of Dose A, bone marrow collected after 24 hours
Procedure: Female C57BL/6J mice (Jackson Laboratories) were used for this study. Compounds or vehicle/control were prepped with EtOH; PEG-400; Phosal 53 MCT (10:30:60, v/v). Four mice were tested per compound or vehicle/control. On Day 1, mice were administered a single dose of Dose A. On Day 2 (after 24 hours), tissue (bone marrow) was collected from one hind leg per mouse.
An MSD (Meso Scale Discovery) ELISA (enzyme-linked immunosorbent assay) based assay was used to determine BTK degradation in mouse bone marrow. The following materials and equipment were used: 10% NP40 solution (nonionic polyoxyethylene surfactant, ThermoFisher, cat no. 28324); protease inhibitor mini tablet (Roche, cat no. 05 892 970 001); PhosphoSTOP™ tablet (Roche, cat no. 04 906 837 001); Pierce™ BCA Protein Assay Kit (Thermofisher, Cat No. 23225); Precellys® 2 mL lysing tube with 2.8 mm beads (VWR, cat no. 10032-756); Bertin Precellys® 24/Cryolys® cooling system; 96-well MSD streptavidin pre-coated plates (MSD, cat no. L15SA-1); MSD Blocker A (MSD, cat no. R93BA-4); capture antibody, biotinylated BTK mAb (BD Biosciences, cat no. 624008; custom order); primary detection antibody, BTK RpAb (rabbit polyclonal antibody, CST, cat no. 8547S, D3H5 clone); secondary detection antibody, anti-Rabbit-Sulfo-Tag (MSD, cat no. R32AB-1); read Buffer, 4× (MSD, cat no. R92TC-1); recombinant BTK protein (Thermofisher, cat no. PR5442A); MSD Tris Wash Buffer (10×) (MSD, cat no. R61TX-1); PBS (phosphate-buffered saline); deionized water (diH2O); Lysis Buffer [0.2% NP40 in PBS+Protease Inhibitor tablet (1 tablet/10 mL)+PhosphoSTOP tablet (1 tablet/10 mL)]; 3% MSD Blocker A [MSD Blocker A+450 mL diH2O+50 mL]; and 10×MSD Tris Wash Buffer.
Lysis buffer [(PBS+0.2% NP40+PI (protease inhibitor)+PhosphoSTOP)] was prepared and put on ice until it was fully cold. Ice cold lysis buffer […] was added to each Precellys® tube containing beads and bone marrow sample. Sample tubes were transferred into Precellys® machine and homogenized using 5000 rpm—2×20 seconds. The sample lysates were centrifuged at 14,000 rpm for 20 minutes at 4° C. after homogenizing.
The protein concentration was determined using Pierce™ BCA Protein Assay Kit following manufacturer's recommended protocol. The protein normalized working solution was prepared, using 30 μg protein per sample lysate for assay.
A 300 ng/ml working stock solution of recombinant BTK protein in lysis buffer was prepared, and the sample was serially diluted at 3-fold dilution (10-point assay, highest concentration was 300 ng/mL and lowest concentration was 0.015 ng/mL)
MSD plate coating: Coating antibody (biotinylated-BTK mAb) stock solution was prepared at 1 μg/mL in PBS buffer. 50 μL/well capture antibody (Biotinylated BTK mAb) solution was added, and the plates were shaken gently at ambient temperature for two hours. The plates were washed 3 times with 1×MSD Tris Wash Buffer in a plate washer (300 μL/well), and the plates were blocked with 3% MSD Blocker A (150 μL/well). The plates were incubated for an additional 1-2 hours at ambient temperature with gentle shaking. The plates were washed 3 times with 1×MSD wash buffer using plate washer. Bone marrow lysates (30 μg) at a final volume of 50 μL/well were added into the plates. The serially diluted standard samples were added to the same plates at a final volume of 50 μL/well. The plates were incubated overnight at 4° C. with gentle shaking.
The plates were washed three times with 1×MSD wash buffer (prepared from 10× concentration buffer) using plate washer. Primary detection antibody at 50 μL/well was added (BTK RpAb; 1:1000 dilution in 1% MSD Blocker A). The plates were incubated for two hours at ambient temperature with gentle shaking. The plates were washed three times with 1×MSD wash buffer using plate washer. Anti-Rabbit-SULFO-TAG secondary antibodies (50 μl/well) were added, 1:500 diluted in 1% MSD Blocker A, and the plates were incubated for one to two hours at ambient temperature. […]

[2] = test system: TCL1-driven CLL bearing BTK^C481S mutation; assay: TCL1-driven CLL bearing BTK C481S mutation in C57BL/6 mice, circulating leukemia burden; assay type: in vivo, mouse
From the text: EIA-TCL1 CLL transgenic mice (Crogen Pharmaceuticals LLC) were crossed with BTK^C481S knock-in mice (AbbVie) to generate Eμ-TCL1 transgenic mice carrying the BTK^C481S mutation. The leukemic splenocytes from these BTK^C481S Eμ-TCL1 transgenic mice (Passage 1) were transplanted intravenously into C57BL/6 mice, leading to CLL development in the peripheral blood and spleen. When circulating CLL burden (CD5+CD19+ cells as described below) in the recipient mice reached over 90%, their splenocytes (Passage 2) containing high CLL burden were cryopreserved and used for CLL efficacy studies. […]
To determine the absolute/total leukocyte numbers, complete blood counts were determined for each mouse using the Genesis™ veterinary hematology analyzer (Oxford Science Inc.).
Cells isolated from murine peripheral blood mononuclear cells (PMBCs) were collected to determine antigen expression. […] Cells were gated on CD45+, and thereafter the percentage of cells that were CD5+CD19+ from that subset was calculated. […]
Whole blood was collected weekly post tumor implantation via submandibular cheek bleeding. Circulating leukemic burden was calculated by multiplying absolute/total leukocyte count with the percentage of the leukocytes have the immunophenotype CD19^+CD5^+. […]

Chain of BTK in mouse bone marrow (P35991 whole entry): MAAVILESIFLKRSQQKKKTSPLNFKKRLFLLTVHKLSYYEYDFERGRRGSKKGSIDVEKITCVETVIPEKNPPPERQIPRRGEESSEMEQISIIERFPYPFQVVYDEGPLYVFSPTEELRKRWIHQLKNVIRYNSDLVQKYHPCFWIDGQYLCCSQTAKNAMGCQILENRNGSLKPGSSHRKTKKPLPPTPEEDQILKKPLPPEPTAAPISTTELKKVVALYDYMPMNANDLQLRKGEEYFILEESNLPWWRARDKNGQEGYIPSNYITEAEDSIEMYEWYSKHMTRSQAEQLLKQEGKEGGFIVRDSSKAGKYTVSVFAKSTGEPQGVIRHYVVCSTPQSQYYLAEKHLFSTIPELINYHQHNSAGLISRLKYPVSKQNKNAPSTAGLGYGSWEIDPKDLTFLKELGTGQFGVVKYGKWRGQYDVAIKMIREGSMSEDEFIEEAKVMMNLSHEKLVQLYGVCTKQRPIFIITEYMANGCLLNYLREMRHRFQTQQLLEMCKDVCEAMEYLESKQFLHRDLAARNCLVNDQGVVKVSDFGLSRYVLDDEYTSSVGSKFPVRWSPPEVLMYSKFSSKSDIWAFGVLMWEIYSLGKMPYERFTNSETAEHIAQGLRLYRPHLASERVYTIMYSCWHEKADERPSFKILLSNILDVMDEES

## Cc1cc(-c2cc(Nc3ccc(N4CCN(CCc5ccc(N6CCC(=O)NC6=O)cc5)C[C@@H]4C)cn3)ncn2)ccc1[C@@H](C)NC(=O)c1nc(C(C)(C)C)no1 [Example 1, 3-tert-butyl-N-[(1R)-1-{4-[6-({5-[(2S)-4-{2-[4-(2,4-dioxo-1,3-diazinan-1-yl)phenyl]ethyl}-2-methylpiperazin-1-yl]pyridin-2-yl}amino)pyrimidin-4-yl]-2-methylphenyl}ethyl]-1,2,4-oxadiazole-5-carboxamide]
[1]
  Mouse Bone Marrow (%) (% remaining BTK, vehicle versus treated): 11%
[2]; QD for 19 days, at Dosage 3 and Dosage 4
  CLL burden control (no increase from the initial tumor burden): Complete CLL burden control
[2]; once daily (QD) for 19 days, Dosage 1-4, FIG. 1
  circulating leukemia burden (CD19+CD5+ CLL cells per μL): controlled circulating leukemia burden of the TCL1-driven CLL bearing BTK^C481S mutation in C57BL/6 mice in a dose-dependent manner

From patent US12172992B2, “Pyrimidines for degrading Bruton's tyrosine kinase” (AbbVie Inc., priority 2022, dated 2024)
